From patent US9616081B2, “Antitumor agent including low-dose irinotecan hydrochloride hydrate” (TAIHO PHARMACEUTICAL CO., LTD., priority 2013, dated 2017)
Where a name gives a salt, the structure may show the parent alone.

Key:
[1] = dose of 111 mg/kg/day; cited from earlier work
[2] = tested on: human colon cancer cell line (KM20C); assay: Reference Example: survival of mice intraperitoneally transplanted with KM20C, monotherapy; format: in vivo; conditions: i.v., weekly; for ILS (increase in life span): 6 weeks from Day 3; for Survival time (day) Mean ± SD: 6 weeks from Day 3, BALB/cA Jcl-nu mice
Description: Cultured cells (1×10^7 cells/mouse) of human colon cancer cell line (KM20C) were intraperitoneally transplanted into 5-6 weeks old BALB/cA Jcl-nu mice after birth, and the mice were assigned to each group so that the mean body weight of each group became equal. The date on which such grouping (n=10) was performed was taken as Day 0.
[…]. Starting the dug administration from Day 3, a 5-days' daily oral administration of the FTD/TPI combination drug with 2-days' rest was performed for 6 weeks, and CPT-11 was administered once in a week from the tail vein for 6 weeks.
As an index of the antitumor effect, the number of survivors of each group of mice and the survival time of each group was compared.

[3] = tested on: human gastric cancer cell line (SC-2); assay: Example 3: combined administration test, SC-2 tumor in mice (RTV, TGI); conditions: Day 1, 8, i.v., q.d.

CCc1c2c(nc3ccc(OC(=O)N4CCC(N5CCCCC5)CC4)cc13)-c1cc3c(c(=O)n1C2)COC(=O)[C@]3(O)CC [CPT-11, irinotecan hydrochloride hydrate]
death case reported [1]: death case
ILS (increase in life span) ([2]; 80 mg/kg/day): 54.0%
Survival time (day) Mean ± SD ([2]; 80 mg/kg/day): 61.6 ± 12.6 days
ILS (increase in life span) ([2]; 100 mg/kg/day): 81.3%
Survival time (day) Mean ± SD ([2]; 100 mg/kg/day): 72.5 ± 12.3 days
TGI, tumor growth inhibition rate on Day 15 ([3]; 40 mg/kg/day): 64.6%
TGI, tumor growth inhibition rate on Day 15 ([3]; 80 mg/kg/day): 79.4%
